Laboratory results taken from patent publication US11365199B2, “Pyrazole compounds as modulators of FSHR and uses thereof” (Merck Patent GmbH, priority 2013, dated 2022).

Each compound was assayed against T1, FSHR (Homo sapiens, UniProt P23945) (assay: EC50 of cyclic AMP production in CHO FSHR cells + EC20 FSH (Assay A)). Conditions: CHO FSHR cells + EC20 FSH, cAMP HTRF; read-out: Assay A: EC50 of cyclic AMP production.
T1 construct: expressed in transfected cells; host or cells: CHO (Cho-FSHR-LUC-1-1-43)
T1 sequence (P23945 18-695): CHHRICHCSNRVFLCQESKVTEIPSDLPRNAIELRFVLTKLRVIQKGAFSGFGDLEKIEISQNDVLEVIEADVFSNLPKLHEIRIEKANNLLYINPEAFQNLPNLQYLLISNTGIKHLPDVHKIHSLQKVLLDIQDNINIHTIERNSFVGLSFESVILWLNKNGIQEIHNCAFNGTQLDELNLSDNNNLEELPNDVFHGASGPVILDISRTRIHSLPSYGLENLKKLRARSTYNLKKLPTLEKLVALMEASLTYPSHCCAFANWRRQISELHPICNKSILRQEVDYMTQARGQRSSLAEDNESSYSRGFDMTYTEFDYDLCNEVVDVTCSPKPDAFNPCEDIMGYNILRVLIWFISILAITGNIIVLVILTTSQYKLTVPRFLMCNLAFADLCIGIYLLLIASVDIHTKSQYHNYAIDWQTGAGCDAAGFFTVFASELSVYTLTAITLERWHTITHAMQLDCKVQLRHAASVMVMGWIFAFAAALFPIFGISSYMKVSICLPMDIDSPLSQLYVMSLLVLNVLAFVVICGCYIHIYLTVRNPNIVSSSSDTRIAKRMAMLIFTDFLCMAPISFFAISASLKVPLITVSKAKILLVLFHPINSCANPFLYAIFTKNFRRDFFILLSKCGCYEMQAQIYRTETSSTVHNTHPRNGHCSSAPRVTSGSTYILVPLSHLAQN
Format: cell-based
Procedure: EC50 of Cyclic AMP Production in CHO FSHR Cells+EC20 FSH (Assay A)
2500 Cho-FSHR-LUC-1-1-43 cells were plated per well in 5 μl of phenol red free DMEM/F12+1% FBS. Cells were plated in 384 well, solid white low volume plates (Greiner 784075) by Multidrop. Cells were assayed by adding 100 μl of 2×EC20 FSH/IBMX in DMEM/F12+0.1% BSA) by Multidrop to 2 μl of test compound stamped in 384 well plates (compounds are diluted 1:50). The final FSH concentration was […], and the final IBMX concentration was 200 μM. The compound plate map was as follows: Column 1: 2 μl of DMSO; Column 2: 2 μl of DMSO; Columns 3-12 and 13-24: 2 μl of test compound, diluted 1:4 in 100% DMSO, or 2 μl of FSH, diluted 1:4 in DMEM/F12+0.1% BSA. The starting concentration for FSH was 50 nM (final concentration was 0.5 nM). Furthermore, Column 23 contained 2 μl of EC100 FSH reference (100×) (diluted in DMEM/F12+0.1% BSA) at a final concentration of 0.5 nM, and Column 24 contained 2 μl of 1 mM AS707664/2 reference compound 2. 5 μl of compound+EC20 FSH mixture were transferred to cell plates (1:2 dilution into 5 μl of cell media) The plates were incubated at 37° C. for 1 h. 10 μl of mixed HTRF (CisBio #62AM4PEC) reagents were added per well and incubated at room temperature for 1 h. The plates were read on Envision using the cAMP HTRF—low volume 384 well protocol. The readout was the calculated fluorescence ratio (665 nm/620 nm). Values given in percent (%) indicate the percental effect (response) at a certain concentration of agonist relative to the maximum response of the FSH standard.

First: COc1cc2c(cc1C=C(C)C)-c1c(c(C(=O)N3CCCC(C(=O)N(C)C)CC3)nn1-c1ccsc1)CO2 (stereo not drawn) [Compound 41, 1-[7-Methoxy-8-(2-methyl-propenyl)-1-thiophen-3-yl-1,4-dihydro-chromeno[4,3-c]pyrazole-3-carbonyl]-azepane-4-carboxylic Acid Dimethylamide]
Second: COc1cc2c(cc1OC(C)C)-c1c(c(C(=O)N3CCCC(C(=O)O)CC3)nn1-c1ccsc1)CO2 (stereo not drawn) [Compound 25, 1-(8-Isopropoxy-7-methoxy-1-thiophen-3-yl-1,4-dihydro-chromeno[4,3-c]pyrazole-3-carbonyl)-azepane-4-carboxylic acid]
The EC50 of the first is lower: 100 to 1000 nM for the first, greater than 5000 nM for the second. The first is the more potent here.

Compared with `COc1cc2c(cc1-c1ccn(C)n1)-c1c(c(C(=O)N3CCN(C(C)=O)CC3(C)C)nn1-c1ccsc1)CO2` [Compound 216], `COc1cc2c(cc1-c1ccn(C)n1)-c1c(c(C(=O)N3CCCC34COC4)nn1-c1ccsc1)CO2` [Compound 174, [7-Methoxy-8-(1-methyl-1H-pyrazol-3-yl)-1-thiophen-3-yl-1,4-dihydro-chromeno[4,3-c]pyrazol-3-yl]-(2-oxa-5-aza-spiro[3.4]oct-5-yl)-methanone] is higher in EC50: less than 100 nM for the first, 100 to 1000 nM for the second.

`COc1cc2c(cc1OC(C)C)-c1c(c(C(=O)NCCCN)nn1-c1ccsc1)CO2` [Compound 27, 8-Isopropoxy-7-methoxy-1-thiophen-3-yl-1,4-dihydro-chromeno[4,3-c]pyrazole-3-carboxylic acid (3-amino-propyl)-amide] and `COc1cc2c(cc1C=C(C)C)-c1c(c(C(=O)NCCCNC(C)=O)nn1-c1ccsc1)CO2` [Compound 8, 7-Methoxy-8-(2-methyl-propenyl)-1-thiophen-3-yl-1,4-dihydro-chromeno[4,3-c]pyrazole-3-carboxylic acid (3-acetylamino-propyl)-amide] cannot be ordered by EC50: greater than 5000 nM for the first, greater than 5000 nM for the second.

Compared with `COc1cc2c(cc1-c1ccn(C)c1)-c1c(c(C(=O)N3CCN(C(C)=O)CC3)nn1-c1ccsc1)CO2` [Compound 155, 1-{4-[7-Methoxy-8-(1-methyl-1H-pyrrol-3-yl)-1-thiophen-3-yl-1,4-dihydro-chromeno[4,3-c]pyrazole-3-carbonyl]-piperazin-1-yl}-ethanone], `COc1cc2c(cc1-c1ccn(C)c1)-c1c(c(C(=O)N3CCCC3(C)CO)nn1-c1ccsc1)CO2` (stereo not drawn) [Compound 176, (2-Hydroxymethyl-2-methyl-pyrrolidin-1-yl)-[7-methoxy-8-(1-methyl-1H-pyrrol-3-yl)-1-thiophen-3-yl-1,4-dihydro-chromeno[4,3-c]pyrazol-3-yl]-methanone] is lower in EC50: greater than 5000 nM for the first, less than 100 nM for the second.

First: COc1cc2c(cc1C=C(C)C)-c1c(c(C(=O)N3CCOCC3(C)C)nn1-c1ccsc1)CO2 [Compound 39, (3,3-Dimethyl-morpholin-4-yl)-[7-methoxy-8-(2-methyl-propenyl)-1-thiophen-3-yl-1,4-dihydro-chromeno[4,3-c]pyrazol-3-yl]-methanone]
Second: COc1cc2c(cc1C=C(C)C)-c1c(c(C(=O)N3CCC34COC4)nn1-c1ccsc1)CO2 [Compound 44, [7-Methoxy-8-(2-methyl-propenyl)-1-thiophen-3-yl-1,4-dihydro-chromeno[4,3-c]pyrazol-3-yl]-(6-oxa-1-aza-spiro[3.3]hept-1-yl)-methanone]
The EC50 of the first is lower: less than 100 nM for the first, 100 to 1000 nM for the second.

First: COc1cc2c(cc1C(O)C(C)(C)O)-c1c(c(C(=O)N(C)C(C)(C)C)nn1-c1ccsc1)CO2 (stereo not drawn) [Compound 38, 8-(1,2-Dihydroxy-2-methyl-propyl)-7-methoxy-1-thiophen-3-yl-1,4-dihydro-chromeno[4,3-c]pyrazole-3-carboxylic Acid tert-butyl-methyl-amide]
Second: COc1cc2c(cc1-c1c[nH]nc1C)-c1c(c(C(=O)N(C)C(C)(C)C)nn1-c1ccsc1)CO2 [Compound 71, 7-Methoxy-8-(3-methyl-1H-pyrazol-4-yl)-1-thiophen-3-yl-1,4-dihydro-chromeno[4,3-c]pyrazole-3-carboxylic acid tert-butyl-methyl-amide]
The EC50 of the first is higher: 1000 to 5000 nM for the first, less than 100 nM for the second. The second is the more potent here.

`COc1cc2c(cc1C=C(C)C)-c1c(c(C(=O)N(C)CCCN3CCOC3=O)nn1-c1ccsc1)CO2` [Compound 33] and `COc1cc2c(cc1C=C(C)C)-c1c(c(C(=O)N(C)CCCN(C)C(C)=O)nn1-c1ccsc1)CO2` [Compound 32] fall in the same range of EC50: 100 to 1000 nM for the first, 100 to 1000 nM for the second.

First: COc1cc2c(cc1-c1cc(C)n(C)c1C)-c1c(c(C(=O)N3CCOCC3(C)C)nn1-c1ccsc1)CO2 [Compound 120, (3,3-Dimethyl-morpholin-4-yl)-[7-methoxy-1-thiophen-3-yl-8-(1,2,5-trimethyl-1H-pyrrol-3-yl)-1,4-dihydro-chromeno[4,3-c]pyrazol-3-yl]-methanone]
Second: COc1cc2c(cc1S(=O)(=O)C1CC1)-c1c(c(C(=O)N3CCOCC3(C)C)nn1-c1ccsc1)CO2 [Compound 106, (8-Cyclopropanesulfonyl-7-methoxy-1-thiophen-3-yl-1,4-dihydro-chromeno[4,3-c]pyrazol-3-yl)-(3,3-dimethyl-morpholin-4-yl)-methanone]
The EC50 of the first is lower: less than 100 nM for the first, 100 to 1000 nM for the second.

Compared with `COc1cc2c(cc1C=C(C)C)-c1c(c(C(=O)NC3CCCC(C(=O)OC(C)(C)C)C3)nn1-c1ccsc1)CO2` (stereo not drawn) [Compound 15, 3-{[7-Methoxy-8-(2-methyl-propenyl)-1-thiophen-3-yl-1,4-dihydro-chromeno[4,3-c]pyrazole-3-carbonyl]-amino}-cyclohexanecarboxylic acid tert-butyl ester], `[2H]C([2H])([2H])OCC(C)(C)NC(=O)c1nn(-c2ccsc2)c2c1COc1cc(OC)c(C=C(C)C)cc1-2` [Compound 59] is lower in EC50: greater than 5000 nM for the first, 100 to 1000 nM for the second. The second is the more potent here.

Compared with `COc1cc2c(cc1-c1ccn(C)n1)-c1c(c(C(=O)NC(C)(CO)CO)nn1-c1ccsc1)CO2` [Compound 185, 7-Methoxy-8-(1-methyl-1H-pyrazol-3-yl)-1-thiophen-3-yl-1,4-dihydro-chromeno[4,3-c]pyrazole-3-carboxylic Acid (2-hydroxy-1-hydroxymethyl-1-methyl-ethyl)-amide], `COc1cc2c(cc1-c1ccn(C)c1)-c1c(c(C(=O)N(C)C(C)(C)C)nn1-c1ccsc1)CO2` [Compound 55, 7-Methoxy-8-(1-methyl-1H-pyrrol-3-yl)-1-thiophen-3-yl-1,4-dihydro-chromeno[4,3-c]pyrazole-3-carboxylic acid tert-butyl-methyl-amide] is lower in EC50: 100 to 1000 nM for the first, less than 100 nM for the second.

`[2H]C([2H])([2H])OCC1(C)CCCN1C(=O)c1nn(-c2ccsc2)c2c1COc1cc(OC)ccc1-2` (stereo not drawn) [Compound 183, (2-Methoxymethyl-2-methyl-pyrrolidin-1-yl)-(7-methoxy-1-thiophen-3-yl-1,4-dihydro-chromeno[4,3-c]pyrazol-3-yl)-methanone] and `COc1cc2c(cc1-c1ccn(C)c1)-c1c(c(C(=O)N(C)C3COC3)nn1-c1ccsc1)CO2` [Compound 103, 7-Methoxy-8-(1-methyl-1H-pyrrol-3-yl)-1-thiophen-3-yl-1,4-dihydro-chromeno[4,3-c]pyrazole-3-carboxylic acid methyl-oxetan-3-yl-amide] fall in the same range of EC50: 100 to 1000 nM for the first, 100 to 1000 nM for the second.

First: COc1cc2c(cc1-c1sccc1C)-c1c(c(C(=O)N(C)C(C)(C)C)nn1-c1ccsc1)CO2 [Compound 88, 7-Methoxy-8-(3-methyl-thiophen-2-yl)-1-thiophen-3-yl-1,4-dihydro-chromeno[4,3-c]pyrazole-3-carboxylic acid tert-butyl-methyl-amide]
Second: COc1cc2c(cc1S(=O)(=O)C(C)C)-c1c(c(C(=O)NC3(C)COC3)nn1-c1ccsc1)CO2 [Compound 188, 7-Methoxy-8-(propane-2-sulfonyl)-1-thiophen-3-yl-1,4-dihydro-chromeno[4,3-c]pyrazole-3-carboxylic Acid (3-methyl-oxetan-3-yl)-amide]
The EC50 of the first is lower: less than 100 nM for the first, greater than 5000 nM for the second. The first is the more potent here.
